{"source": "patent US9555071B2", "about": "“Methods and compositions for the treatment of axonal and neuronal degeneration” (priority 2012, dated 2017)", "key": {"[1]": {"system": "postnatal (P4-5) dorsal root ganglion (DRG) and cerebrocortical neurons", "experiment": "Prevention of axonal/neuronal death in cultured neurons", "assay_type": "cell-based", "conditions": "in vitro; peptides in linear as well as cyclo forms; FIG. 1", "protocol": "Several small RGD peptides containing RGD sequence were generated and their axonal protective effect was tested. The RGD peptides included RGDYK (SEQ ID NO:1), GRGDS (SEQ ID NO:2), FRGDLG (SEQ ID NO:4), FRGDSP (SEQ ID NO:9), IRGDSP (SEQ ID NO:15), RRGDQT (SEQ ID NO:5), KRGDNF (SEQ ID NO:6), PRGDLT (SEQ ID NO:7) in linear as well as cyclo forms."}, "β1-integrin receptor": {"system": "β1-integrin receptor", "experiment": "Blocking of the peptide's axonal protection by integrin antagonists", "assay_type": "cell-based", "source_text": "The RGD motif is known to bind to the integrin receptor. The addition of the peptides of the present invention to primary DRG neuronal cultures induced rapid phosphorylation of neurofilament (NFH), change in NAD synthase nicotinamide mononucleotide adenylyltransferase (NMNAT) expression, and focal adhesion kinase (FAK), an integrin-linked kinase, at the tyrosine 397 residue (Y397), which are indicative of integrin binding to a ligand. Co-administration of echistatin or specific function-blocking antibody to β1-integrin abolished the axonal/neuronal protective ability of the peptide. See Example 1.\nThe protective effect of the […] peptides was dependent upon their ability to bind to β1-integrin receptor. […] Co-administration of specific function-blocking antibody to β1-integrin abolished the axonal protective ability of the GRGDSP (SEQ ID NO:3) peptide."}, "[2]": {"system": "acrylamide intoxicated MAG−/− mice", "experiment": "Acrylamide-induced axonal degeneration in MAG−/− mice", "assay_type": "in vivo", "conditions": "for severe gait instability / axonal swelling, beading and segmentation of Aβ fibers in the skin / neuromuscular junction morphology: daily intraperitoneal injection; for severe gait instability: acrylamide for 10 days; for axonal swelling, beading and segmentation of Aβ fibers in the skin / neuromuscular junction morphology: acrylamide, FIG. 2E; for change in amplitudes of CMAP: electrophysiological testing, FIG. 2D", "source_text": "Furthermore, the RGD peptides can also prevent axonal and/or neuronal degeneration in vivo. See Example 3. Administration of acrylamide, a well characterized toxin, causes axonal “dying back” or degeneration without lymphocytic inflammatory response (Schaumburg et al., 1974, Ko et al., 2000; Ewaleifoh et al, 2012) in wild-type and MAG knockout mice. […] The acrylamide treated MAG−/− mice developed more rapid and severe motor impairment. Most mice fell off the rod even during pretraining and had profound decline in the retention time on the Rotarod (FIG. 2B). There was a decrease in amplitudes of CMAP (FIG. 2.D). […] The neuromuscular junction morphology was normal. On gross observation, there was only mild gait unsteadiness. […] Thus, the RGD peptide was able to prevent significant axonal degeneration that is typically seen in MAG−/− mice treated with acrylamide.\nTo test that RGD peptides may prevent axonal degeneration in a murine model, acrylamide, a well characterized toxin causing axonal “dying back” or degeneration without lymphocytic inflammatory response (Schaumburg et al., 1974, Ko et al., 2000, Ewaleifoh et at, 2012), was administered to wild-type and MAG−/− mice. When MAG knockout mice at 6 weeks of age were exposed to acrylamide for 10 days, there was markedly impaired gait with marked sensory ataxia and spreading of the toes of the hind limbs. The acrylamide treated MAG−/− mice developed more rapid and severe motor impairment. Most mice fell off the rod even during pretraining and had profound decline in the retention time on the Rotarod (FIG. 2B). There was a 68% decrease in amplitudes of CMAP (FIG. 2.D).\nThe neuromuscular junction morphology was normal (FIG. 2E). On gross observation, there was only mild gait unsteadiness."}, "[3]": {"experiment": "Bioavailability and bio-distribution by LC-QTOF mass spectrometer", "assay_type": "in vivo, C57B1 mice", "conditions": "intraperitoneal 1 μg/g", "protocol": "In contrast, there was no decrease with the co-administration of the peptide (n=10 mice).\nTo test the bioavailability and bio-distribution of the RGD peptides in vivo, C57B1 mice were given intraperitoneal injection of 1 μg/g weight of cylco-GRGDSP (SEQ ID NO:3) in normal saline (1 mg/ml). The mice were sacrificed at 30, 60, 120, and 240 minutes. Blood, brain, skin, muscle, and tibial and sciatic nerves were collected. The presence of the peptide was detected using LC-QTOF mass spectrometer."}, "[4]": {"system": "dorsal root ganglion (DRG) explants", "experiment": "Axonal protection of DRG explants exposed to vincristine", "assay_type": "cell-based", "protocol": "Panels A to D are representative images of dorsal root ganglion (DRG) explants after exposure to 50 nM vincristine at 0 and 60 hours. Explants in panels A and B were treated with 50 nM vincristine and 0.5 μg/ml peptide while those in panels C and D were treated with vincristine alone.\nDRG explants were exposed to 50 nM vincristine. Explants in panels A and B were treated with 50 nM vincristine and 0.5 μg/ml RGD peptide while those in panels C and D were treated with vincristine alone. […] The cyclo-GRGDSP (SEQ ID NO:3) peptide potently promoted axonal survival in cell culture with EC50=0.5 μM (FIG. 1.E)."}, "[5]": {"system": "Streptozotocin-induced diabetic mouse model", "experiment": "Streptozotocin-induced diabetic mouse model", "assay_type": "in vivo", "conditions": "intravenous or intraperitoneal daily injection", "source_text": "(§1) Similar findings were also seen in other murine models such as Trembler J mice, a murine model of Charcot-Marie-Tooth type 1, MOG-EAE mice, model of multiple sclerosis with significant axonal loss, and Streptozotocin-induced diabetic mouse model. […] Application of the RGD peptide allowed the diseased mice to have a normal or near normal phenotype similar to untreated wild-type animals.\nas §1, with “including (1)” for “such as”, “1, (2)” for “1,”, “and (3)” for “and”, “The” for “Application of the”"}, "MOG-EAE mice": {"system": "MOG-EAE mice", "experiment": "MOG-EAE mice, model of multiple sclerosis", "assay_type": "in vivo", "conditions": "intravenous or intraperitoneal daily injection", "source_text": "as §1\nas §1, with “including (1)” for “such as”, “1, (2)” for “1,”, “and (3)” for “and”, “The” for “Application of the”"}, "Trembler J mice": {"system": "Trembler J mice", "experiment": "Trembler J mice, model of Charcot-Marie-Tooth type 1", "assay_type": "in vivo", "conditions": "intravenous or intraperitoneal daily injection", "source_text": "as §1\nas §1, with “including (1)” for “such as”, “1, (2)” for “1,”, “and (3)” for “and”, “The” for “Application of the”"}, "axons": {"system": "axons", "conditions": "insults such as vincristine, acrylamide, inflammatory mediators; Nguyen et al., 2009; cited from earlier work"}, "[6]": {"conditions": "sampled 30, 60, 120, 240 minutes"}}, "data": [{"molecule": "RGDYK: RGD peptide, amino acid sequence RGDYK (Synthetic Peptide, Linear or Cyclo)", "values": [{"measurement": "stabilize the axon and prevent axonal/neuronal death", "setting": "[1]", "value": "sufficient to stabilize the axon and to prevent axonal/neuronal death"}]}, {"molecule": "IRGDSP: RGD peptide, amino acid sequence IRGDSP (Synthetic Peptide, Linear or Cyclo)", "values": [{"measurement": "stabilize the axon and prevent axonal/neuronal death", "setting": "[1]", "value": "sufficient to stabilize the axon and to prevent axonal/neuronal death"}]}, {"molecule": "GRGDSP: RGD peptide, amino acid sequence GRGDSP", "values": [{"measurement": "axonal protective ability of the peptide", "setting": "β1-integrin receptor; co-administration of specific function-blocking antibody to β1-integrin", "value": "abolished"}]}, {"molecule": "KRGDNF: RGD peptide, amino acid sequence KRGDNF (Synthetic Peptide, Linear or Cyclo)", "values": [{"measurement": "stabilize the axon and prevent axonal/neuronal death", "setting": "[1]", "value": "sufficient to stabilize the axon and to prevent axonal/neuronal death"}]}, {"molecule": "GRGDS: RGD peptide, amino acid sequence GRGDS (Synthetic Peptide, Linear or Cyclo)", "values": [{"measurement": "stabilize the axon and prevent axonal/neuronal death", "setting": "[1]", "value": "sufficient to stabilize the axon and to prevent axonal/neuronal death"}]}, {"molecule": "FRGDLG: RGD peptide, amino acid sequence FRGDLG (Synthetic Peptide, Linear or Cyclo)", "values": [{"measurement": "stabilize the axon and prevent axonal/neuronal death", "setting": "[1]", "value": "sufficient to stabilize the axon and to prevent axonal/neuronal death"}]}, {"molecule": "cyclo-FRGDSP: cyclic RGD peptide of sequence FRGDSP (SEQ ID NO:9) (cyclic; Synthetic Peptide, Linear or Cyclo)", "values": [{"measurement": "severe gait instability", "setting": "[2]", "value": "largely prevented"}, {"measurement": "axonal swelling, beading and segmentation of Aβ fibers in the skin", "setting": "[2]", "value": "largely prevented"}, {"measurement": "neuromuscular junction morphology", "setting": "[2]", "value": "normal"}, {"measurement": "change in amplitudes of CMAP", "setting": "[2]", "value": "little to no change"}]}, {"molecule": "cyclo-FRGDLP: cyclic RGD peptide of sequence FRGDLP (SEQ ID NO:8) (cyclic; Synthetic Peptide, Linear or Cyclo)", "values": [{"measurement": "severe gait instability", "setting": "[2]", "value": "largely prevented"}, {"measurement": "axonal swelling, beading and segmentation of Aβ fibers in the skin", "setting": "[2]", "value": "largely prevented"}, {"measurement": "neuromuscular junction morphology", "setting": "[2]", "value": "normal"}, {"measurement": "change in amplitudes of CMAP", "setting": "[2]", "value": "little to no change"}]}, {"molecule": "PRGDLT: RGD peptide, amino acid sequence PRGDLT (Synthetic Peptide, Linear or Cyclo)", "values": [{"measurement": "stabilize the axon and prevent axonal/neuronal death", "setting": "[1]", "value": "sufficient to stabilize the axon and to prevent axonal/neuronal death"}]}, {"molecule": "RRGDQT: RGD peptide, amino acid sequence RRGDQT (Synthetic Peptide, Linear or Cyclo)", "values": [{"measurement": "stabilize the axon and prevent axonal/neuronal death", "setting": "[1]", "value": "sufficient to stabilize the axon and to prevent axonal/neuronal death"}]}, {"molecule": "N=C(N)NCCC[C@@H]1NC(=O)CNC(=O)[C@@H]2CCCN2C(=O)[C@H](CO)NC(=O)[C@H](CC(=O)O)NC(=O)CNC1=O", "note": "[cyclo-GRGDSP]", "values": [{"measurement": "peptide detected in sciatic nerves", "setting": "[3]; all time points up to 4 hours, FIG. 2A", "value": "detected in high concentration"}, {"measurement": "peptide detected in plasma", "setting": "[3]; [6]", "value": "detected"}, {"measurement": "peptide levels in brain", "setting": "[3]; [6]", "value": "only evident in the first hour"}, {"measurement": "EC50", "setting": "[4]; DRG explants exposed to 50 nM vincristine, FIG. 1E, read-out: EC50, axonal survival in cell culture", "value": 500, "unit": "nM"}, {"measurement": "neuronal death (TUNEL-positive cells)", "setting": "[4]; associated with axonal protection, FIG. 1F", "value": "marked decreased in neuronal death"}, {"measurement": "axonal/neuronal degeneration and behavioral deficits", "setting": "[5]", "value": "almost completely abolished"}, {"measurement": "axonal/neuronal degeneration and behavioral deficits", "setting": "MOG-EAE mice", "value": "almost completely abolished"}, {"measurement": "severe gait instability", "setting": "[2]", "value": "largely prevented"}, {"measurement": "axonal swelling, beading and segmentation of Aβ fibers in the skin", "setting": "[2]", "value": "largely prevented"}, {"measurement": "neuromuscular junction morphology", "setting": "[2]", "value": "normal"}, {"measurement": "change in amplitudes of CMAP", "setting": "[2]", "value": "little to no change"}, {"measurement": "axonal/neuronal degeneration and behavioral deficits", "setting": "Trembler J mice", "value": "almost completely abolished"}]}, {"molecule": "cyclo-IRGDSP: cyclic RGD peptide of sequence IRGDSP (SEQ ID NO:15) (cyclic; Synthetic Peptide, Linear or Cyclo)", "values": [{"measurement": "axonal/neuronal degeneration and behavioral deficits", "setting": "[5]", "value": "almost completely abolished"}, {"measurement": "axonal/neuronal degeneration and behavioral deficits", "setting": "MOG-EAE mice", "value": "almost completely abolished"}, {"measurement": "severe gait instability", "setting": "[2]", "value": "largely prevented"}, {"measurement": "axonal swelling, beading and segmentation of Aβ fibers in the skin", "setting": "[2]", "value": "largely prevented"}, {"measurement": "neuromuscular junction morphology", "setting": "[2]", "value": "normal"}, {"measurement": "change in amplitudes of CMAP", "setting": "[2]", "value": "little to no change"}, {"measurement": "axonal/neuronal degeneration and behavioral deficits", "setting": "Trembler J mice", "value": "almost completely abolished"}]}, {"molecule": "echistatin [reference compound]", "values": [{"measurement": "effect of co-administered blocker on axonal/neuronal protective ability of the peptide", "setting": "β1-integrin receptor; co-administration with RGD peptide", "value": "abolished"}]}, {"molecule": "FRGDSP: RGD peptide, amino acid sequence FRGDSP (Synthetic Peptide, Linear or Cyclo)", "values": [{"measurement": "stabilize the axon and prevent axonal/neuronal death", "setting": "[1]", "value": "sufficient to stabilize the axon and to prevent axonal/neuronal death"}]}, {"molecule": "MAG: transmembrane glycoprotein containing five Ig-like domains; adhesion molecule of the immunoglobin superfamily (protein, UniProt P20916 20-626, looked up) Myelin-associated glycoprotein: GHWGAWMPSSISAFEGTCVSIPCRFDFPDELRPAVVHGVWYFNSPYPKNYPPVVFKSRTQVVHESFQGRSRLLGDLGLRNCTLLLSNVSPELGGKYYFRGDLGGYNQYTFSEHSVLDIVNTPNIVVPPEVVAGTEVEVSCMVPDNCPELRPELSWLGHEGLGEPAVLGRLREDEGTWVQVSLLHFVPTREANGHRLGCQASFPNTTLQFEGYASMDVKYPPVIVEMNSSVEAIEGSHVSLLCGADSNPPPLLTWMRDGTVLREAVAESLLLELEEVTPAEDGVYACLAENAYGQDNRTVGLSVMYAPWKPTVNGTMVAVEGETVSILCSTQSNPDPILTIFKEKQILSTVIYESELQLELPAVSPEDDGEYWCVAENQYGQRATAFNLSVEFAPVLLLESHCAAARDTVQCLCVVKSNPEPSVAFELPSRNVTVNESEREFVYSERSGLVLTSILTLRGQAQAPPRVICTARNLYGAKSLELPFQGAHRLMWAKIGPVGAVVAFAILIAIVCYITQTRRKKNVTESPSFSAGDNPPVLFSSDFRISGAPEKYESERRLGSERRLLGLRGEPPELDLSYSHSDLGKRPTKDSYTLTEELAEYAEIRVK", "values": [{"measurement": "axonal survival / prevention of axonal degeneration caused by vincristine", "setting": "axons", "value": "promotes axonal survival"}]}]}
